The values below come from PMC11684029, “Discovery of VU6024578/BI02982816: An mGlu1 Positive Allosteric Modulator with Efficacy in Preclinical Antipsychotic and Cognition Models” (Journal of Medicinal Chemistry, 2024).

Data set [1] can be described thus: intrinsic clearance, predicted hepatic clearance. The class given is in vitro ADME, human. As to conditions: in vitro predicted hepatic clearance. Here is the method:
Human or rat hepatic microsomes (0.5 mg/mL) and 1 μM test compound were incubated in 100 mM potassium phosphate pH 7.4 buffer with 3 mM MgCl2 at 37 °C with constant shaking. After a 5 min preincubation, the reaction was initiated by addition of NADPH (1 mM). At selected time intervals (0, 3, 7, 15, 25, and 45 min), aliquots were taken and subsequently placed into a 96-well plate containing cold acetonitrile with internal standard (50 ng/mL carbamazepine). Plates were then centrifuged at 3000 rcf (4 °C) for 10 min, and the supernatant was transferred to a separate 96-well plate and diluted 1:1 with water for LC/MS/MS analysis. The in vitro half-life (T1/2, min, eq 1), intrinsic clearance (CLint, mL/min/kg, eq 2) and subsequent predicted hepatic clearance (CLhep, mL/min/kg, eq 3) was determined employing the following equations: [drawing 2] 1 where k represents the slope from linear regression analysis of the natural log percent remaining of test compound as a function of incubation time [drawing 3] 2
^ascale-up factors: of 20 (human) or 45 (rat) [drawing 4] 3 where Qh (hepatic blood flow, mL/min/kg) is 21 (human) or 70 (rat).

In another data set the test system is rats. Kind of data set: rat AHL Cmax versus Ctrough study. The format is in vivo. The procedure:
Based on these positive behavioral data and the clear PK/PD relationship tied to achieving free brain levels at, or above, the mGlu1 PAM EC50, we next wanted to define the role of Cmax versus Ctrough drug (19d) concentrations in driving the PK/PD relationship. To accomplish this, pretreatment times and doses were calculated based upon previous PK (see Supporting Information Figure S3)[20] data to target free brain concentrations at and below the in vitro EC50 at the time of amphetamine challenge. Rats were pretreated with 3 mg/kg 19d or vehicle after habituation to the locomotor chambers are described in Figure 9A. Rats pretreated with 19d (10–60 mg/kg) or vehicle were administered compound prior to starting the amphetamine-induced hyperlocomotion experiment as depicted in Figure 9B-D. Ambulations were evaluated for 90 min post amphetamine treatment for all dosing groups. Pretreatment of 19d, chamber habituation, amphetamine treatment and ambulation recording times are outlined for each dosing group in Figure 9. Blood and brain samples were obtained at the end of testing (EOT) to determine 19d levels at the end of the study (Table 6).
The terminal free brain concentrations for this dosing group were 40 nM.
Figure 10 Amphetamine-induced hyperlocomotion in rats. A) 1 h pretreatment of 3 mg/kg 19d. B) 5 h pretreatment of 10 mg/kg 19d. C) 28.5 h pretreatment of 60 mg/kg 19d. Total ambulation from 95 to 180 min. *p < 0.05 compared to Vehicle + Amphetamine treated animals. TEXT PRINTED IN THE PICTURE: (A) 19d: Mean % reversal 27.3% * (3 mg/kg 19d + AMP) | (B) 19d: Mean % reversal 25.1% * (10 mg/kg 19d + AMP) | (C) 19d: Mean % reversal 7.3% (60 mg/kg 19d + AMP) DOUBTS OF THE COPYIST ABOUT THIS PICTURE: 19d, panel A, Mean % reversal: small print, 27.3% could be 27.8% / 19d, panel B, Mean % reversal: small print, 25.1% could be 26.1% / 19d, panel C, Mean % reversal: small print, 7.3% could be 7.8%

Structures are written as SMILES. Several values for one entry are separate records, joined by “and”; a condition that tells them apart may be missing. Equal entries are not always repeated.

On to `Cn1nc(-c2ccnn2C)cc1CNC(=O)c1cc(-c2ccco2)ccc1Cl` [Compound 19d, 2-Chloro-N-((1,2′-dimethyl-1H,2’H-[3,3′-bipyrazol]-5-yl)methyl)-5-(furan-2-yl)benzamide], for which the “CLhep, human” value in data set [1] was 16 mL/min/kg and 15.8 mL/min/kg. For the same compound, the “effect on AHL, in words” value was “significantly reduced” with rats (3 mg/kg, 1 h prior to amphetamine) and “significantly reduced” in the data set with rats (10 mg/kg, 5 h before amphetamine). Moreover, the “reduction of locomotor activity after amphetamine, in words” value with rats (60 mg/kg, 28.5 h before amphetamine) is on record as “not demonstrated”.
